Assay results from patent US20100292255A1, “Therapeutic Compounds and Their Use in Treating Diseases and Disorders” (Myriad Pharmaceuticals, Inc., priority 2007, published 2010).

Each molecule was assayed on T1, purified human Hsp90 (assay: Hsp90 binding assay: displacement of BODIPY-labeled geldanamycin measured by fluorescence polarization). Settings: 5 μM compound; BODIPY-GM 10 nM, Hsp90 30 nM, overnight at room temperature.
T1 construct: purified human Hsp90 (Stressgen, SPP-770)
Method: Binding of the Example Compounds to purified Hsp90 was assayed by measuring the displacement of BODIPY-labeled geldanamycin (BODIPY-GM) from purified human Hsp90, using a fluorescence polarization assay adapted from Kim et al. (J. Biomolec. Screening, 9(5):375-381 (2004)). Compound dilutions (in 100% DMSO) were added to black-bottom 96-well plates (Greiner Bio-One, Monroe, N.C.) in 2% DMSO final, and equal volumes of BODIPY-GM (10 nM final) and purified human Hsp90 (Stressgen, SPP-770; 30 nM final) (Assay Designs, Ann Arbor, Mich.) in assay buffer (20 mM HEPES-KOH pH 7.3, 50 mM KCl, 5 mM MgCl2, 20 mM Na2MoO4, 0.01% NP-40, 0.1 mg/mL bovine gamma globulin [P2045; Invitrogen, Carlsbad, Calif.], 2 mM DTT) were added sequentially to yield a final volume of 50 microliters. Plates were incubated overnight at room temperature. Parallel and perpendicular fluorescence measurements were read (Analyst AD plate reader; LJL BioSystems, Middletown, Conn.) with excitation/emission wavelengths of 485/530 nm. Background fluorescence (buffer only) was subtracted, and fluorescence polarization (FP) values, expressed in mP units, were calculated from parallel and perpendicular fluorescence readings as follows:
FP=(parallel−perpendicular)/(parallel+perpendicular)*1000.
Percent inhibition was calculated by normalizing the FP values to those obtained in parallel reactions containing DMSO and subtracting these normalized values from 100%. Intrinsic compound fluorescence was independently monitored, and FP data points confounded by compound fluorescence were excluded from the analysis.

GM displacement from purified Hsp90 measured by FP Inhibition by 5 μM compd. (%)	Compound
87.0	Nc1ncn(CCC2CCN(C=O)CC2)c2nc(Sc3cc(O)c(O)cc3Br)nc1-2 [Example Compound 146, 4-(2-{6-amino-8-[(2-bromo-4,5-dihydroxyphenyl)thio]-3H-purin-3-yl}ethyl)piperidine-1-carbaldehyde]
75.0	Cc1cc(Br)c(Sc2nc3c(N)ncn(CCC4CCN(C(=O)[C@H](C)O)CC4)c-3n2)cc1C [Example Compound 166, (2S)-1-[4-(2-{6-amino-8-[(2-bromo-4,5-dimethylphenyl)thio]-3H-purin-3-yl}ethyl)piperidin-1-yl]-1-oxopropan-2-ol]

Same assay, conditions: BODIPY-GM 10 nM, Hsp90 30 nM, overnight at room temperature; read-out: GM displacement from purified Hsp90 measured by FP IC 50

Compound	IC50 [nM]
Nc1ncnc2c1nc(Sc1cc(O)c(O)cc1Br)n2CCC1CCN(C=O)CC1 [Example Compound 145, 4-(2-{6-Amino-8-[(2-bromo-4,5-dihydroxyphenyl)thio]-9H-purin-9-yl}ethyl)piperidine-1-carbaldehyde]	600
Nc1ncnc2c1nc(Sc1cc3c(cc1Br)OCO3)n2CCC1CCNCC1 [Example Compound 147, 8-[(6-Bromo-1,3-benzodioxol-5-yl)thio]-9-(2-piperidin-4-ylethyl)-9H-purin-6-amine]	470
Nc1ncnc2c1nc(Sc1cc3c(cc1Br)OCO3)n2CCC1CCN(S(N)(=O)=O)CC1 [Example Compound 148, 4-(2-{6-Amino-8-[(6-bromo-1,3-benzodioxol-5-yl)thio]-9H-purin-9-yl}ethyl)piperidine-1-sulfonamide]	400
Nc1ncnc2c1nc(Sc1cc3c(cc1Br)OCO3)n2CCC1CCN(CCO)CC1 [Example Compound 149, 2-[4-(2-{6-Amino-8-[(6-bromo-1,3-benzodioxol-5-yl)thio]-9H-purin-9-yl}ethyl)piperidin-1-yl]ethanol]	450
Nc1ncnc2c1nc(Sc1cc3c(cc1Br)OCO3)n2CCC1CCN(CCCO)CC1 [Example Compound 150, 3-[4-(2-{6-Amino-8-[(6-bromo-1,3-benzodioxol-5-yl)thio]-9H-purin-9-yl}ethyl)piperidin-1-yl]propan-1-ol]	600
Nc1ncnc2c1nc(Sc1cc3c(cc1Br)OCO3)n2CCC1CCN(C2=NC(=O)CC2)CC1 [Example Compound 156, 5-[4-(2-{6-amino-8-[(6-bromo-1,3-benzodioxol-5-yl)thio]-9H-purin-9-yl}ethyl)piperidin-1-yl]-3,4-dihydro-2H-pyrrol-2-one]	160
C[C@H](O)C(=O)N1CCC(CCn2c(Sc3cc4c(cc3Br)CCCC4)nc3c(N)ncnc32)CC1 [Example Compound 163, (2S)-1-[4-(2-{6-amino-8-[(3-bromo-5,6,7,8-tetrahydronaphthalen-2-yl)thio]-9H-purin-9-yl}ethyl)piperidin-1-yl]-1-oxopropan-2-ol]	205
Cc1cc(Br)c(Sc2nc3c(N)ncnc3n2CCC2CCN(C(=O)[C@H](C)O)CC2)cc1C [Example Compound 165, (2S)-1-[4-(2-{6-amino-8-[(2-bromo-4,5-dimethylphenyl)thio]-9H-purin-9-yl}ethyl)piperidin-1-yl]-1-oxopropan-2-ol]	240
Nc1ncnc2c1nc(Sc1cc3c(cc1Br)CCO3)n2CCC1CCN(C=O)CC1 [Example Compound 167, 4-(2-{6-Amino-8-[(5-bromo-2,3-dihydro-1-benzofuran-6-yl)thio]-9H-purin-9-yl}ethyl)piperidine-1-carbaldehyde]	42
Nc1ncnc2c1nc(Sc1cc3occc3cc1Br)n2CCC1CCN(C=O)CC1 [Example Compound 168, 4-(2-{6-Amino-8-[(5-bromo-1-benzofuran-6-yl)thio]-9H-purin-9-yl}ethyl)piperidine-1-carbaldehyde]	95
CC(C)(C)OC(=O)N1CCC(CCn2c(Sc3cc4c(cc3C=O)OCO4)nc3c(N)ncnc32)CC1 [Example Compound 169, tert-Butyl 4-(2-{6-amino-8-[(6-formyl-1,3-benzodioxol-5-yl)thio]-9H-purin-9-yl}ethyl)piperidine-1-carboxylate]	1900
COC(=O)c1cc2c(cc1Sc1nc3c(N)ncnc3n1CCC1CCN(C=O)CC1)OCO2 [Example Compound 170, Methyl 6-({6-amino-9-[2-(1-formylpiperidin-4-yl)ethyl]-9H-purin-8-yl}thio)-1,3-benzodioxole-5-carboxylate]	41
CCOC(=O)c1cc2c(cc1Sc1nc3c(N)ncnc3n1CCC1CCN(C=O)CC1)OCO2 [Example Compound 171, ethyl 6-({6-amino-9-[2-(1-formylpiperidin-4-yl)ethyl]-9H-purin-8-yl}thio)-1,3-benzodioxole-5-carboxylate]	68
CC(C)(C)OC(=O)N1CCC(CCn2c(Sc3cc4c(cc3Br)CCO4)nc3c(N)ncnc32)CC1 [Example Compound 172, tert-Butyl 4-(2-{6-amino-8-[(5-bromo-2,3-dihydro-1-benzofuran-6-yl)thio]-9H-purin-9-yl}ethyl)piperidine-1-carboxylate]	300

Now from value to molecule:

IC50 [nM]	Compound
57	NC(=O)C[C@H](N)C(=O)N1CCC(CCn2c(Sc3cc4c(cc3Br)OCCO4)nc3c(N)ncnc32)CC1 [Example Compound 151, (3S)-3-Amino-4-[4-(2-{6-amino-8-[(7-bromo-2,3-dihydro-1,4-benzodioxin-6-yl)thio]-9H-purin-9-yl}ethyl)piperidin-1-yl]-4-oxobutanamide]
114	NC(=O)C[C@H](N)C(=O)N1CCC(CCn2c(Sc3cc4c(cc3Br)OCO4)nc3c(N)ncnc32)CC1 [Example Compound 152, (3S)-3-Amino-4-[4-(2-{6-amino-8-[(6-bromo-1,3-benzodioxol-5-yl)thio]-9H-purin-9-yl}ethyl)piperidin-1-yl]-4-oxobutanamide]
175	NC(=O)CCC(=O)N1CCC(CCn2c(Sc3cc4c(cc3Br)OCCO4)nc3c(N)ncnc32)CC1 [Example Compound 153, 4-[4-(2-{6-Amino-8-[(7-bromo-2,3-dihydro-1,4-benzodioxin-6-yl)thio]-9H-purin-9-yl}ethyl)piperidin-1-yl]-4-oxobutanamide]
105	Nc1ncnc2c1nc(Sc1cc3c(cc1Br)OCCO3)n2CCC1CCN(C2=NC(=O)CC2)CC1 [Example Compound 154, 5-[4-(2-{6-amino-8-[(7-bromo-2,3-dihydro-1,4-benzodioxin-6-yl)thio]-9H-purin-9-yl}ethyl)piperidin-1-yl]-3,4-dihydro-2H-pyrrol-2-one]
300	NC(=O)CCC(=O)N1CCC(CCn2c(Sc3cc4c(cc3Br)OCO4)nc3c(N)ncnc32)CC1 [Example Compound 155, 4-[4-(2-{6-Amino-8-[(6-bromo-1,3-benzodioxol-5-yl)thio]-9H-purin-9-yl}ethyl)piperidin-1-yl]-4-oxobutanamide]
195	CS(=O)(=O)NCC(=O)N1CCC(CCn2c(Sc3cc4c(cc3Br)OCCO4)nc3c(N)ncnc32)CC1 [Example Compound 157, N-{2-[4-(2-{6-Amino-8-[(7-bromo-2,3-dihydro-1,4-benzodioxin-6-yl)thio]-9H-purin-9-yl}ethyl)piperidin-1-yl]-2-oxoethyl}methanesulfonamide]
360	CS(=O)(=O)NCC(=O)N1CCC(CCn2c(Sc3cc4c(cc3Br)OCO4)nc3c(N)ncnc32)CC1 [Example Compound 158, N-{2-[4-(2-{6-Amino-8-[(6-bromo-1,3-benzodioxol-5-yl)thio]-9H-purin-9-yl}ethyl)piperidin-1-yl]-2-oxoethyl}methanesulfonamide]
150	CC(=O)NCC(=O)N1CCC(CCn2c(Sc3cc4c(cc3Br)OCCO4)nc3c(N)ncnc32)CC1 [Example Compound 159, N-{2-[4-(2-{6-Amino-8-[(7-bromo-2,3-dihydro-1,4-benzodioxin-6-yl)thio]-9H-purin-9-yl}ethyl)piperidin-1-yl]-2-oxoethyl}acetamide]
200	CC(=O)N[C@@H](C)C(=O)N1CCC(CCn2c(Sc3cc4c(cc3Br)OCCO4)nc3c(N)ncnc32)CC1 [Example Compound 160, N-{(1S)-2-[4-(2-{6-Amino-8-[(7-bromo-2,3-dihydro-1,4-benzodioxin-6-yl)thio]-9H-purin-9-yl}ethyl)piperidin-1-yl]-1-methyl-2-oxoethyl}acetamide]
140	CC(=O)N[C@H](C)C(=O)N1CCC(CCn2c(Sc3cc4c(cc3Br)OCCO4)nc3c(N)ncnc32)CC1 [Example Compound 161, N-{(1R)-2-[4-(2-{6-Amino-8-[(7-bromo-2,3-dihydro-1,4-benzodioxin-6-yl)thio]-9H-purin-9-yl}ethyl)piperidin-1-yl]-1-methyl-2-oxoethyl}acetamide]
60	Nc1ncnc2c1nc(Sc1cc3c(cc1Br)OCCO3)n2CCC1CCN(C(=O)CS)CC1 [Example Compound 162, 2-[4-(2-{6-Amino-8-[(7-bromo-2,3-dihydro-1,4-benzodioxin-6-yl)thio]-9H-purin-9-yl}ethyl)piperidin-1-yl]-2-oxoethanethiol]
